PubChem BioAssay AID2060497 (Molecular Pharmacology Branch, DTP, NCI, 2025)
One block for each compound: values may come before it.

Tested on: 317291-083-R-J1-PDC complex spheroids, viability
Assay: Anticancer human tumor 317291-083-R-J1-PDC patient-derived soft tissue sarcoma cell line growth inhibition [GQUAD]
Details: for IC50: curve of first compound; for viability, T/C: stronger effect = lower value
Procedure, shortened: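 Tumor cells were grown as complex spheroids with HUVEC endothelial cells and mesenchymal stem cells as stroma. G-quadruplex stabilizers were combined with targeted agents over half-log dilutions from near the clinical Cmax, or from 10 microM.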

[1] = second compound 0.0316 µM, first compound 0.0316 µM
[2] = second compound 0.0316 µM, first compound 0.1 µM
[3] = second compound 0.0316 µM, first compound 0.316 µM
[4] = second compound 0.0316 µM, first compound 1 µM
[5] = second compound 0.0316 µM, first compound 3.16 µM
[6] = second compound 0.0316 µM, first compound 10 µM
[7] = second compound 0.1 µM, first compound 0.0316 µM
[8] = second compound 0.1 µM, first compound 0.1 µM
[9] = second compound 0.1 µM, first compound 0.316 µM
[10] = second compound 0.1 µM, first compound 1 µM
[11] = second compound 0.1 µM, first compound 3.16 µM
[12] = second compound 0.1 µM, first compound 10 µM
[13] = second compound 0.316 µM, first compound 0.0316 µM
[14] = second compound 0.316 µM, first compound 0.1 µM
[15] = second compound 0.316 µM, first compound 0.316 µM
[16] = second compound 0.316 µM, first compound 1 µM
[17] = second compound 0.316 µM, first compound 3.16 µM
[18] = second compound 0.316 µM, first compound 10 µM
[19] = second compound 1 µM, first compound 0.0316 µM
[20] = second compound 1 µM, first compound 0.1 µM
[21] = second compound 1 µM, first compound 0.316 µM
[22] = second compound 1 µM, first compound 1 µM
[23] = second compound 1 µM, first compound 3.16 µM
[24] = second compound 1 µM, first compound 10 µM
[25] = second compound 3.16 µM, first compound 0.0316 µM
[26] = second compound 3.16 µM, first compound 0.1 µM
[27] = second compound 3.16 µM, first compound 0.316 µM
[28] = second compound 3.16 µM, first compound 1 µM
[29] = second compound 3.16 µM, first compound 3.16 µM
[30] = second compound 3.16 µM, first compound 10 µM
[31] = second compound 10 µM, first compound 0.0316 µM
[32] = second compound 10 µM, first compound 0.1 µM
[33] = second compound 10 µM, first compound 0.316 µM
[34] = second compound 10 µM, first compound 1 µM
[35] = second compound 10 µM, first compound 3.16 µM
[36] = second compound 10 µM, first compound 10 µM
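Further: spheroids exposed to compounds for one week before readout.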
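Wherever viability, T/C is given: percent viability relative to DMSO vehicle wells taken as 100%.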

- IC50 (second compound 0.0316 µM): < 31.6 nM
- IC50 (second compound 0.1 µM): < 31.6 nM
- IC50 (second compound 0.316 µM): < 31.6 nM
- IC50 (second compound 1 µM): < 31.6 nM
- IC50 (second compound 3.16 µM): < 31.6 nM
- IC50 (second compound 10 µM): < 31.6 nM
Compound: CC(=O)O[C@H]1C(=O)[C@@]2(C)[C@H]([C@H](OC(=O)c3ccccc3)[C@]3(O)C[C@H](OC(=O)[C@H](O)[C@@H](NC(=O)c4ccccc4)c4ccccc4)C(C)=C1C3(C)C)[C@]1(OC(C)=O)CO[C@@H]1C[C@@H]2O + Cc1cnc(CNC(=O)c2c(=O)c3ccc(N4CCCN(C)CC4)nc3n3c2sc2ccccc23)cn1
- viability, T/C [1]: 29.2%
- viability, T/C [2]: 14.9%
- viability, T/C [3]: 8.69%
- viability, T/C [4]: 9.72%
- viability, T/C [5]: 11.3%
- viability, T/C [6]: 9.08%
- viability, T/C [7]: 25.4%
- viability, T/C [8]: 8.37%
- viability, T/C [9]: 11.1%
- viability, T/C [10]: 8.92%
- viability, T/C [11]: 10%
- viability, T/C [12]: 10.2%
- viability, T/C [13]: 17.5%
- viability, T/C [14]: 12.3%
- viability, T/C [15]: 8.21%
- viability, T/C [16]: 9.2%
- viability, T/C [17]: 7.36%
- viability, T/C [18]: 8.93%
- viability, T/C [19]: 17.8%
- viability, T/C [20]: 10.5%
- viability, T/C [21]: 8.43%
- viability, T/C [22]: 11.4%
- viability, T/C [23]: 8.77%
- viability, T/C [24]: 9.02%
- viability, T/C [25]: 14.3%
- viability, T/C [26]: 7.98%
- viability, T/C [27]: 11.2%
- viability, T/C [28]: 5.02%
- viability, T/C [29]: 14.6%
- viability, T/C [30]: 5.59%
- viability, T/C [31]: 0.22%
- viability, T/C [32]: 11.5%
- viability, T/C [33]: 7.59%
- viability, T/C [34]: 1.49%
- viability, T/C [35]: 0.95%
- viability, T/C [36]: 0.58%

Compound: Nc1ccn(C2OC(CO)C(O)C2(F)F)c(=O)n1 (stereo not drawn) + Cc1[nH]c2ccc(F)cc2c1-c1nc2c3cccnc3c3ncccc3c2[nH]1
- IC50 (second compound 0.0316 µM): 44.8 nM
- IC50 (second compound 0.1 µM): 42.8 nM
- IC50 (second compound 0.316 µM): 32.8 nM
- IC50 (second compound 1 µM): 37.1 nM
- IC50 (second compound 3.16 µM): 35.1 nM
- IC50 (second compound 10 µM): < 31.6 nM
- viability, T/C [1]: 63%
- viability, T/C [2]: 20.3%
- viability, T/C [3]: 11.9%
- viability, T/C [4]: 11%
- viability, T/C [5]: 11.8%
- viability, T/C [6]: 8.15%
- viability, T/C [7]: 57.9%
- viability, T/C [8]: 27.4%
- viability, T/C [9]: 14.8%
- viability, T/C [10]: 12.3%
- viability, T/C [11]: 11%
- viability, T/C [12]: 9.19%
- viability, T/C [13]: 51.2%
- viability, T/C [14]: 16.1%
- viability, T/C [15]: 13.1%
- viability, T/C [16]: 16.2%
- viability, T/C [17]: 10.3%
- viability, T/C [18]: 8.34%
- viability, T/C [19]: 55.6%
- viability, T/C [20]: 15.8%
- viability, T/C [21]: 10.5%
- viability, T/C [22]: 9.19%
- viability, T/C [23]: 9.71%
- viability, T/C [24]: 8.18%
- viability, T/C [25]: 52.8%
- viability, T/C [26]: 22.5%
- viability, T/C [27]: 12%
- viability, T/C [28]: 12%
- viability, T/C [29]: 11.2%
- viability, T/C [30]: 10.7%
- viability, T/C [31]: 40.3%
- viability, T/C [32]: 13.2%
- viability, T/C [33]: 10.2%
- viability, T/C [34]: 8.15%
- viability, T/C [35]: 13.3%
- viability, T/C [36]: 9.1%

- IC50 (second compound 0.0316 µM): 2030 nM
- IC50 (second compound 0.1 µM): 163 nM
- IC50 (second compound 0.316 µM): 61.9 nM
- IC50 (second compound 1 µM): < 31.6 nM
- IC50 (second compound 3.16 µM): < 31.6 nM
- IC50 (second compound 10 µM): < 31.6 nM
Compound: COc1ccc([C@@H](O)c2cc(-c3ncnc4cc(N5CCOCC5)ccc34)c(F)cc2Cl)nn1 + Cc1cnc(CNC(=O)c2c(=O)c3ccc(N4CCCN(C)CC4)nc3n3c2sc2ccccc23)cn1
- viability, T/C [1]: 108%
- viability, T/C [2]: 92.1%
- viability, T/C [3]: 68.2%
- viability, T/C [4]: 66.6%
- viability, T/C [5]: 41.5%
- viability, T/C [6]: 30.7%
- viability, T/C [7]: 85.9%
- viability, T/C [8]: 50.3%
- viability, T/C [9]: 49.4%
- viability, T/C [10]: 35.1%
- viability, T/C [11]: 24.1%
- viability, T/C [12]: 31.8%
- viability, T/C [13]: 58.2%
- viability, T/C [14]: 42.9%
- viability, T/C [15]: 38.1%
- viability, T/C [16]: 22.4%
- viability, T/C [17]: 24.2%
- viability, T/C [18]: 19.8%
- viability, T/C [19]: 41%
- viability, T/C [20]: 25.3%
- viability, T/C [21]: 19.6%
- viability, T/C [22]: 23.4%
- viability, T/C [23]: 33.7%
- viability, T/C [24]: 22.7%
- viability, T/C [25]: 40.1%
- viability, T/C [26]: 41.4%
- viability, T/C [27]: 19.8%
- viability, T/C [28]: 20.6%
- viability, T/C [29]: 23%
- viability, T/C [30]: 16.9%
- viability, T/C [31]: 19.1%
- viability, T/C [32]: 40.8%
- viability, T/C [33]: 17.7%
- viability, T/C [34]: 17.3%
- viability, T/C [35]: 18.6%
- viability, T/C [36]: 19.9%

Compound: Nc1ccn(C2OC(CO)C(O)C2(F)F)c(=O)n1 (stereo not drawn) + CN(C)c1ccc(Nc2c3ccc(NC(=O)CCN4CCCC4)cc3nc3cc(NC(=O)CCN4CCCC4)ccc23)cc1
- IC50 (second compound 0.0316 µM): 44.5 nM
- IC50 (second compound 0.1 µM): 37.7 nM
- IC50 (second compound 0.316 µM): < 31.6 nM
- IC50 (second compound 1 µM): < 31.6 nM
- IC50 (second compound 3.16 µM): < 31.6 nM
- IC50 (second compound 10 µM): < 31.6 nM
- viability, T/C [1]: 62.2%
- viability, T/C [2]: 21.4%
- viability, T/C [3]: 12.5%
- viability, T/C [4]: 11.5%
- viability, T/C [5]: 13.7%
- viability, T/C [6]: 11.4%
- viability, T/C [7]: 54.9%
- viability, T/C [8]: 23.9%
- viability, T/C [9]: 13.7%
- viability, T/C [10]: 10.9%
- viability, T/C [11]: 10.9%
- viability, T/C [12]: 9.57%
- viability, T/C [13]: 44.9%
- viability, T/C [14]: 27.4%
- viability, T/C [15]: 11.9%
- viability, T/C [16]: 9.85%
- viability, T/C [17]: 9.6%
- viability, T/C [18]: 8.28%
- viability, T/C [19]: 26.9%
- viability, T/C [20]: 27.8%
- viability, T/C [21]: 10.5%
- viability, T/C [22]: 7.35%
- viability, T/C [23]: 7.21%
- viability, T/C [24]: 7.95%
- viability, T/C [25]: 15.6%
- viability, T/C [26]: 7.01%
- viability, T/C [27]: 6.98%
- viability, T/C [28]: 4.89%
- viability, T/C [29]: 4.18%
- viability, T/C [30]: 5.05%
- viability, T/C [31]: 10.3%
- viability, T/C [32]: 3.73%
- viability, T/C [33]: 1.83%
- viability, T/C [34]: 4.43%
- viability, T/C [35]: 2.4%
- viability, T/C [36]: 2.72%
